How the values were obtained:
[1] = Routes and rates of excretion after single oral [14C]DF2755A; type: in vivo; settings: single oral 20 mg/kg, female SD rats
Protocol: Prior to administration and for acclimatization, animals (n = 6) were transferred to individual metabolic cages and were left therein for the duration of the study except for a short period during dosing. The metabolic cages were specifically designed for the separate collection of urine and feces. The preparation of dose formulation was performed on the day of experiment. The test item was dissolved in the appropriate volume of saline solution (NaCl, 0.9% w v^−1) to achieve the dose volume of 5 ml kg^−1. The resulting solution was then administered via a gavage fed down the esophagus to enable the formulation to be dispensed directly into the stomach.
Radioactivity was extracted from the selected feces and urine homogenate pools with appropriate solvents based on methodology developed at Quotient (Rushden) Ltd. and analyzed by quantitative radioactivity analysis (QRA).

CXCL5 = CXCL5 ELISA in bladder tissue; type: in vivo, rat; settings: preventive: 20 mg kg^−1 + 7 mg kg^−1 twice daily for 7 days, CYP rats
Protocol: (§1) Animals pre-treated with the vehicle or a single high oral dose of DF2755A (20 mg kg^−1; 12 h before the first CYP administration) followed by repeated lower doses administration (7 mg kg^−1 twice daily for 7 days) during IC development were deeply anesthetized with isoflurane (4%) and then killed.
After killing, rat abdomen was opened through a midline incision, and bladder and proximal urethra were exposed. A catheter was inserted into the bladder through the urethra and a loose ligature was placed around the neck of the urinary bladder. Bladder was inflated with saline via the catheter to slightly distend the bladder and ligature was tightened to maintain proper distension. Bladder was then excised cutting above the insertion point of ureters, and therefore the bladder neck was not included into the bladder sample. […] One piece (B1) was placed in Eppendorf, then snap-frozen in liquid nitrogen, and stored at −80°C until quantification using ELISA assay. […] For the microscopic observations of bladder inflammation, the following parameters were analyzed: bladder edema in scores (n = 10/group), bladder hemorrhage in scores (n = 10/group), urothelial loss in scores (n = 10/group), and total inflammatory score, which was calculated by adding all the individual lesion scores (n = 10/group). […]

TRPV1 = TRPV1 Western blotting in bladder homogenates; type: in vivo, rat; settings: preventive: 20 mg kg^−1 + 7 mg kg^−1 twice daily for 7 days; Western blot, CYP rats
Protocol: as §1
After killing, rat abdomen was opened through a midline incision, and bladder and proximal urethra were exposed. A catheter was inserted into the bladder through the urethra and a loose ligature was placed around the neck of the urinary bladder. Bladder was inflated with saline via the catheter to slightly distend the bladder and ligature was tightened to maintain proper distension. […] One piece (B1) was placed in Eppendorf, then snap-frozen in liquid nitrogen, and stored at −80°C until quantification using ELISA assay. […] For the microscopic observations of bladder inflammation, the following parameters were analyzed: bladder edema in scores (n = 10/group), bladder hemorrhage in scores (n = 10/group), urothelial loss in scores (n = 10/group), and total inflammatory score, which was calculated by adding all the individual lesion scores (n = 10/group).
Protease and phosphatase inhibitors were added to the bladder homogenates extracted. […] The extracted proteins were quantified using BCA assay (Thermo, United States). […]

CXCR2 = test system: CXCR2; parameters: method as in Lopes et al., 2016; settings: ref Lopes et al., 2016; cited from earlier work

C[C@H](C(=O)[O-])c1ccc(Nc2nc(C(F)(F)F)cs2)cc1.[Na+] [DF2755A, sodium (2S)-2-(4-{[4-(trifluoromethyl)-1,3-thiazol-2-yl]amino}phenyl)propanoate]
overall mean recovery of radioactivity ([1]; 0 to 48 h post-dose): 97.67 % of dose | Mean recovery of radioactivity, feces ([1]; 0–168 h): 77.10 % dose | Mean recovery of radioactivity, total ([1]; 0–168 h): 102.06 % dose | Mean recovery of radioactivity, urine ([1]; 0–168 h): 24.13 % dose | bladder tissue expression of CXCL5 versus vehicle-treated rats (CXCL5): strongly inhibited | TRPV1 bladder expression versus vehicle-treated animals (TRPV1): reduced | IC50 (CXCR2): 2.1 nM
